Experiments:
[1] = excess molar enthalpy (molar enthalpy of mixing); xn = mol fraction of the nth substance listed; settings: 298.15 K, 101 kPa, Liquid, Calvet calorimetry
[2] = xn = mol fraction of the nth substance listed; settings: 298.15 K, 101 kPa, Liquid, Vibrating tube method

BrCCCBr [1,3-dibromopropane] + CCCCOC(=O)CC
[1]
Settings | excess molar enthalpy [kcal/mol]
x2 = 0.045 | 0.00765
x2 = 0.1122 | 0.0124
x2 = 0.1829 | 0.0129
x2 = 0.2541 | 0.00908
x2 = 0.3191 | 0.00215
x2 = 0.3797 | -0.00813
x2 = 0.4331 | -0.0151
x2 = 0.4438 | -0.017
x2 = 0.5107 | -0.0229
x2 = 0.5886 | -0.0261
x2 = 0.6793 | -0.0263
x2 = 0.7807 | -0.022
x2 = 0.8921 | -0.0131

BrCCCBr [1,3-dibromopropane] + CCCCOC(C)=O
[1]
Settings | excess molar enthalpy [kcal/mol]
x2 = 0.0548 | 0.00191
x2 = 0.1295 | 0.00287
x2 = 0.2133 | 0.00191
x2 = 0.2909 | -0.00167
x2 = 0.3612 | -0.0086
x2 = 0.424 | -0.017
x2 = 0.4792 | -0.0251
x2 = 0.5321 | -0.0289
x2 = 0.6141 | -0.0296
x2 = 0.7077 | -0.0277
x2 = 0.808 | -0.0217
x2 = 0.9143 | -0.0131

BrCCCBr [1,3-dibromopropane] + CCCCOC=O
Settings | excess molar enthalpy [kcal/mol] | mass density [kg/m3]
[1], x2 = 0.0631 | 0.0155 | –
[1], x2 = 0.1489 | 0.0306 | –
[1], x2 = 0.2355 | 0.0397 | –
[1], x2 = 0.3208 | 0.0435 | –
[1], x2 = 0.3958 | 0.0428 | –
[1], x2 = 0.4589 | 0.0409 | –
[1], x2 = 0.5144 | 0.0378 | –
[1], x2 = 0.5498 | 0.0356 | –
[1], x2 = 0.5621 | 0.0344 | –
[1], x2 = 0.6372 | 0.0289 | –
[1], x2 = 0.7237 | 0.0227 | –
[1], x2 = 0.8208 | 0.0143 | –
[1], x2 = 0.9151 | 0.00693 | –
[2], x2 = 0.055 | – | 1904.29
[2], x2 = 0.1095 | – | 1839
[2], x2 = 0.1626 | – | 1776.37
[2], x2 = 0.2171 | – | 1712.74
[2], x2 = 0.273 | – | 1648.68
[2], x2 = 0.3252 | – | 1589.49
[2], x2 = 0.5003 | – | 1397.08
[2], x2 = 0.5617 | – | 1331.4
[2], x2 = 0.6186 | – | 1271.46
[2], x2 = 0.6866 | – | 1200.91
[2], x2 = 0.8026 | – | 1082.84
[2], x2 = 0.8655 | – | 1020.08
[2], x2 = 0.9344 | – | 952.37

CCCCOC(=O)CCC [butyl butanoate] + BrCCBr
[1]
Settings | excess molar enthalpy [kcal/mol]
x1 = 0.0408 | 0.00621
x1 = 0.0978 | 0.0115
x1 = 0.1663 | 0.0139
x1 = 0.2361 | 0.0122
x1 = 0.2997 | 0.00765
x1 = 0.3488 | 0.00359
x1 = 0.4085 | -0.000478
x1 = 0.4847 | -0.00645
x1 = 0.5816 | -0.0115
x1 = 0.7159 | -0.0129
x1 = 0.8632 | -0.00884
x1 = 0.9347 | -0.00526

CCCCOC(=O)CCC [butyl butanoate] + BrCCCBr
Settings | excess molar enthalpy [kcal/mol] | mass density [kg/m3]
[1], x1 = 0.0478 | 0.0055 | –
[1], x1 = 0.1102 | 0.00932 | –
[1], x1 = 0.1831 | 0.0105 | –
[1], x1 = 0.2568 | 0.00765 | –
[1], x1 = 0.3257 | 0.000956 | –
[1], x1 = 0.3879 | -0.00789 | –
[1], x1 = 0.4528 | -0.0163 | –
[1], x1 = 0.5333 | -0.0217 | –
[1], x1 = 0.6324 | -0.0246 | –
[1], x1 = 0.7588 | -0.0225 | –
[1], x1 = 0.8755 | -0.0158 | –
[2], x1 = 0.079 | – | 1834.63
[2], x1 = 0.1205 | – | 1768.32
[2], x1 = 0.206 | – | 1641.3
[2], x1 = 0.2513 | – | 1578.66
[2], x1 = 0.3045 | – | 1509.31
[2], x1 = 0.356 | – | 1445.76
[2], x1 = 0.4085 | – | 1384.26
[2], x1 = 0.4703 | – | 1315.94
[2], x1 = 0.5404 | – | 1243.38
[2], x1 = 0.5989 | – | 1186.32
[2], x1 = 0.7409 | – | 1059.86
[2], x1 = 0.8162 | – | 998.93
[2], x1 = 0.8997 | – | 935.58
[2], x1 = 0.9428 | – | 904.65

BrCCBr [1,2-dibromoethane] + CCCCOC(C)=O
[1]
Settings | excess molar enthalpy [kcal/mol]
x2 = 0.0399 | -0.000239
x2 = 0.0964 | -0.000717
x2 = 0.1625 | -0.00382
x2 = 0.2339 | -0.0103
x2 = 0.3039 | -0.0174
x2 = 0.3717 | -0.0246
x2 = 0.4237 | -0.0308
x2 = 0.4749 | -0.0351
x2 = 0.5228 | -0.0363
x2 = 0.5985 | -0.0366
x2 = 0.6854 | -0.0332
x2 = 0.7854 | -0.0277
x2 = 0.8989 | -0.0148

— the NIST ThermoML archive (doi:10.1016/j.jct.2009.05.006)
